According to ChEMBL document CHEMBL3608212, “Design, synthesis, and in vivo activity of novel inhibitors of delta-5 desaturase for the treatment of metabolic syndrome” (Bioorg Med Chem Lett, 2015):

Columns and labels:
[1] = target: T1, Acyl-CoA (8-3)-desaturase (Homo sapiens, UniProt O60427); experiment: Inhibition of liver delta-5 desaturase (unknown origin)
Target sequence in this assay (O60427 whole entry): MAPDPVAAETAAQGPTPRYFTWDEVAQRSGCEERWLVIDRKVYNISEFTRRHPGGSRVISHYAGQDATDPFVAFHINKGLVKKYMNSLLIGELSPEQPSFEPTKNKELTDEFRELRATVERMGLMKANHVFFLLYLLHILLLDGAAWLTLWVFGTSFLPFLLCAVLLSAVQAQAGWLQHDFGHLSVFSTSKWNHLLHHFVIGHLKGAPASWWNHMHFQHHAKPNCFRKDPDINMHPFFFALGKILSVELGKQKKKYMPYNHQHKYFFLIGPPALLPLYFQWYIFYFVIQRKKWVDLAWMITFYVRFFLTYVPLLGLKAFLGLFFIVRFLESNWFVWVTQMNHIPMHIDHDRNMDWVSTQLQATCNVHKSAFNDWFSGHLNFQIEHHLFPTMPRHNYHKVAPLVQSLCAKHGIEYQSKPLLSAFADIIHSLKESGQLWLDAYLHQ

[2] = target: T1, Acyl-CoA (8-3)-desaturase; experiment: Inhibition of liver delta-5 desaturase (unknown origin) at 1 uM
Target sequence in this assay (O60427 whole entry, looked up): as the sequence (O60427 whole entry) above

Mus musculus [3] = experiment: In vivo inhibition of delta-5 desaturase in mouse liver assessed as conversion of [14C]-DGLA to [14C]-arachidonic acid at 30 mg/kg, po after 2.5 hrs by TLC analysis relative to control; type: functional
[4] = Plasma concentration in mouse at 30 mg/kg, po after 0.5 hrs by LC/MS-MS analysis; type: ADME, organism-based
[5] = Ratio of plasma concentration in mouse at 30 mg/kg, po after 0.5 hrs to IC50 for liver delta-5 desaturase (unknown origin); type: ADME, organism-based; conditions: in vivo
[6] = Ratio of plasma concentration in mouse at 60 mg/kg, po after 0.5 hrs to IC50 for liver delta-5 desaturase (unknown origin); type: ADME, organism-based; conditions: in vivo
Mus musculus [7] = experiment: In vivo inhibition of delta-5 desaturase in mouse liver assessed as conversion of [14C]-DGLA to [14C]-arachidonic acid at 60 mg/kg, po after 2.5 hrs by TLC analysis relative to control; type: functional
[8] = Plasma concentration in mouse at 60 mg/kg, po after 0.5 hrs by LC/MS-MS analysis; type: ADME, organism-based

Row | SMILES | IC50 [1] [nM] | other results
1 | Nc1ccccc1C(=O)Nc1ccccc1Cl |  | inhibition [2]: 39%
2 | Nc1ccccc1C(=O)Nc1cc(Cl)cc(Cl)c1 | 245 | 
3 | O=C(Nc1cccc(Cl)c1)c1ccccc1O | 174 | 
4 | Nc1ccc(Cl)cc1C(=O)Nc1cccc(Cl)c1 | 34 | 
5 | Clc1cccc(NC2CCc3ccccc32)c1 (stereo not drawn) | 173 | 
6 | Nc1ccccc1C(=O)Nc1ccc(Cl)cc1 |  | inhibition [2]: 36%
7 | Nc1ccc(F)cc1C(=O)Nc1cccc(Cl)c1 | 67 | 
8 | CC(C)c1cccc(NC(=O)c2ccccc2N)c1 | 843 | 
9 | Nc1ccccc1C(=O)Nc1cccc(F)c1 | 516 | 
10 | Clc1cccc(Nc2cccc3ccccc23)c1 | 17 | 
11 | Clc1cccc(Nc2ccnc3ccccc23)c1 | 18 | 
12 | Nc1ccccc1C(=O)Nc1cccc(Cl)c1 | 58 | 
13 | Nc1ccccc1C(=O)Nc1ccc(F)c(Cl)c1 | 155 | 

Now from value to molecule, other results behind:

Row | IC50 [1] [nM] | SMILES | other results
14 | 371 | Clc1cccc(Nc2nccc3occc23)c1 | 
15 | 6 | Cc1ccc2[nH]nc(Nc3cccc(Cl)c3)c2c1 | 
16 | 50 | Clc1cccc(Nc2ncnc3ccsc23)c1 | 
17 | 21 | Clc1cccc(Nc2n[nH]c3ccc(Br)cc23)c1 | 
18 | 11 | Clc1cccc(Nc2ncnc3ccccc23)c1 | 
19 | 5 | Clc1cccc(Nc2n[nH]c3ccc(Cl)cc23)c1 | 
20 | 84 | Clc1cccc(Nc2n[nH]c3ccccc23)c1 | inhibition in vivo at 30 mg/kg (Mus musculus [3]): 42%; concentration at 0.5 h [4]: 12.7 µM; Ratio [5]: 151
21 | 8 | COc1ccc2[nH]nc(Nc3cccc(Cl)c3)c2c1 | Ratio [6]: 1753; inhibition in vivo at 30 mg/kg (Mus musculus [3]): 75%; inhibition in vivo at 60 mg/kg (Mus musculus [7]): 97%; concentration at 0.5 h [4]: 5.21 µM; Ratio [5]: 652; concentration at 0.5 h [8]: 14 µM
22 | 260 | Clc1cccc(Nc2ncnc3sccc23)c1 | 
23 | 254 | FC(F)(F)c1ccc2[nH]nc(Nc3cccc(Cl)c3)c2c1 | 
24 | 58 | Fc1ccc2[nH]nc(Nc3cccc(Cl)c3)c2c1 | inhibition in vivo at 30 mg/kg (Mus musculus [3]): 49%; concentration at 0.5 h [4]: 14.1 µM; Ratio [5]: 242
25 | 925 | CCOc1ccc(O)c(C(=O)Nc2cccc(Cl)c2)c1 | 
26 | 59 | Fc1cccc(Nc2n[nH]c3ccccc23)c1 | inhibition in vivo at 30 mg/kg (Mus musculus [3]): 18%; concentration at 0.5 h [4]: 9.45 µM; Ratio [5]: 160
27 | > 3000 | FC(F)(F)Oc1ccc2[nH]nc(Nc3cccc(Cl)c3)c2c1 | 
28 | 15 | COc1ccc(O)c(C(=O)Nc2cccc(Cl)c2)c1 | 
